Laboratory results published in patent publication US20170074857A1, “MEDICATION ADHERENCE MONITORING DEVICE” (UNIVERSITY OF FLORIDA RESEARCH FOUNDATION, INC., priority 2014, published 2017).

Experiment: Example 4a: noncompartmental pharmacokinetics of exhaled 2-butanone and 2-pentanone by mGC;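 as to TThresh: time until breath level first exceeds the mGC detection limit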
Format: in vivo, human
From the text: Test Materials. […] 2-butanol was purchased from Penta Manufacturing Company (Fairfield, N.J.). 2-pentanol and L-carvone were purchased from Sigma-Aldrich (St. Louis, Mo.). […] 2-pentanone was also used as a taggant, but we hypothesized that its inherent volatility would allow exhalation without need for metabolism. L-carvone tastes like spearmint and was used as a flavor mask. All capsules were filled on the day of the experiment.
Subject Enrollment and Protocol. This protocol (20100140) was approved by the Western Institutional Review Board (Olympia, Wash.). Healthy subjects (n=5) aged >18 years of age and of either sex were recruited. Informed, written consent was obtained from all enrolled subjects. The study consisted of a single experimental limb with six replicates per subject. Therefore, for five subjects with six replicated experiments, a total of 30 studies were performed. Subjects were free to eat ad lib prior to participation in the study. At commencement of the experiments, subjects provided a baseline breath sample (designated time 0 min) into the mGC for analysis as described subsequently. Then, subjects orally consumed the previously detailed capsule with 177 mL (6 ounces) of water. Following ingestion, we observed the breath concentration-time relationships of 2-butanone and 2-pentanone by collecting single-breath samples at times 5, 10, 15, 20, 30, 45, and 60 min. After 60 min, the experiment was concluded. After at least one day's respite, subjects returned for replicate experiments on five additional occasions.
2-Butanone and 2-Pentanone Measurement in Human Breath by mGC. Breath specimens were analyzed “real-time” to measure the concentrations of 2-butanone and 2-pentanone using the mGC (Xhale, Inc. Gainesville, Fla.) as previously described. In brief, a mouthpiece (FST®, Intoximeters, Inc., St. Louis, Mo.) was attached to the inlet of the mGC. A 15 mL side-stream sample was aspirated during a single exhalation over 5 s through this inlet port to a room temperature concentrator trap containing 4 mg of Tenax TA (Sigma-Aldrich). The trap temperature was then increased to 130° C. and the volatile components transferred to a 5 m by 0.53 mm internal diameter, metal clad, BAC-1 capillary column (Restek Corp, Bellefonte, Pa.) operated at 55° C. The effluent from the column then flowed to the metal oxide detectors. Separation of the markers from other volatile organic compounds present in the sample (i.e., acetone and isoprene) occurred in approximately 2 min. Data were tabulated and graphically presented over time to determine the concentrations of 2-butanone and 2-pentanone in a given breath specimen. Data are reported in parts-per-billion (ppb) based on molar fractions to account for differing ambient atmospheric pressures and temperature.
Pharmacokinetic Analysis. Analyte breath concentrations reported as ppb were converted to ng/mL by multiplying each concentration by the molecular weight of the respective molecule to allow proper functioning of conventional PK software for noncompartmental analysis (WinNonlin 5.2, Pharsight Corporation, St. Louis, Mo.). Estimates were generated for the following PK parameters (abbreviation, unit): first-order elimination rate constant (Lambda Z, min-1), half-life of elimination (Half-life, min), maximal drug concentration (CMAX, μg/mL), time at maximal drug concentration (TMAX, min), area under concentration versus time curve from zero to the last time point (AUC0-LAST, min*μg/mL), area under concentration versus time curve from zero to infinity (AUC0-∞, min*μg/mL), percentage of area under concentration versus time curve from zero to infinity, which is extrapolated from AUC0-t (% AUC Extrap) and the mean residence time (MRT, min). The area under concentration versus time curve (AUC) was calculated using the linear trapezoidal rule. All values are reported separately for each subject as mean±standard deviation following conversion from ng/mL to ppb. […]

CCC(C)=O [Formulation 2-butanone, 2-butanone]
% AUC Extrap (30 observations): 17.9%
AUC0-8 (30 observations): 51190 min · ppb
AUC0-LAST (30 observations): 41820 min · ppb
CMAX (30 observations): 1376 ppb
Half-life (30 observations): 216 min
LAMBDA_Z (30 observations): 0.036 min⁻¹
MRT0-last (30 observations): 25.7 min
TMAX (30 observations): 17.8 min
% AUC Extrap (REPLICATE 1): 41.3%
AUC0-LAST (REPLICATE 1): 53278 min · ppb
AUC0-∞ (REPLICATE 1): 64618 min · ppb
CMAX (REPLICATE 1): 1793 ppb
Half-life (REPLICATE 1): 21.1 min
LAMBDA_Z (REPLICATE 1): 0.036 min⁻¹
MRT0-last (REPLICATE 1): 24.4 min
TMAX (REPLICATE 1): 15.0 min
TThresh (REPLICATE 1, same 5 subjects): 5.0 min
% AUC Extrap (REPLICATE 2): 47.3%
AUC0-LAST (REPLICATE 2): 44693 min · ppb
AUC0-∞ (REPLICATE 2): 58070 min · ppb
CMAX (REPLICATE 2): 1361 ppb
Half-life (REPLICATE 2): 24.1 min
LAMBDA_Z (REPLICATE 2): 0.033 min⁻¹
MRT0-last (REPLICATE 2): 28.3 min
TMAX (REPLICATE 2): 21.0 min
TThresh (REPLICATE 2): 7.0 min
% AUC Extrap (REPLICATE 3): 31.3%
AUC0-LAST (REPLICATE 3): 36508 min · ppb
AUC0-∞ (REPLICATE 3): 42226 min · ppb
CMAX (REPLICATE 3): 1175 ppb
Half-life (REPLICATE 3): 16.4 min
LAMBDA_Z (REPLICATE 3): 0.048 min⁻¹
MRT0-last (REPLICATE 3): 24.8 min
TMAX (REPLICATE 3): 17.0 min
TThresh (REPLICATE 3): 6.0 min
% AUC Extrap (REPLICATE 4): 37.3%
AUC0-LAST (REPLICATE 4): 44467 min · ppb
AUC0-∞ (REPLICATE 4): 52141 min · ppb
CMAX (REPLICATE 4): 1449 ppb
Half-life (REPLICATE 4): 21.2 min
LAMBDA_Z (REPLICATE 4): 0.038 min⁻¹
MRT0-last (REPLICATE 4): 23.9 min
TMAX (REPLICATE 4): 19.0 min
TThresh (REPLICATE 4): 6.0 min
% AUC Extrap (REPLICATE 5): 54.6%
AUC0-LAST (REPLICATE 5): 37792 min · ppb
AUC0-∞ (REPLICATE 5): 491783 min · ppb
CMAX (REPLICATE 5): 1227 ppb
Half-life (REPLICATE 5): 27.7 min
LAMBDA_Z (REPLICATE 5): 0.026 min⁻¹
MRT0-last (REPLICATE 5): 26.6 min
TMAX (REPLICATE 5): 15.0 min
TThresh (REPLICATE 5): 7.0 min
% AUC Extrap (REPLICATE 6): 39.2%
AUC0-LAST (REPLICATE 6): 34184 min · ppb
AUC0-∞ (REPLICATE 6): 40905 min · ppb
CMAX (REPLICATE 6): 1251 ppb
Half-life (REPLICATE 6): 18.9 min
LAMBDA_Z (REPLICATE 6): 0.037 min⁻¹
MRT0-last (REPLICATE 6): 26.5 min
TMAX (REPLICATE 6): 20.0 min
TThresh (REPLICATE 6): 6.0 min
% AUC Extrap (SUBJECT 1): 22.6%
AUC0-LAST (SUBJECT 1): 45298 min · ppb
AUC0-∞ (SUBJECT 1): 59106 min · ppb
CMAX (SUBJECT 1): 1297 ppb
Half-life (SUBJECT 1): 22.6 min
LAMBDA_Z (SUBJECT 1): 0.033 min⁻¹
MRT0-last (SUBJECT 1): 29.3 min
TMAX (SUBJECT 1): 21.7 min
TThresh (SUBJECT 1, six replicates): 6.7 min
% AUC Extrap (SUBJECT 2): 19.2%
AUC0-LAST (SUBJECT 2): 66466 min · ppb
AUC0-∞ (SUBJECT 2): 82628 min · ppb
CMAX (SUBJECT 2): 1926 ppb
Half-life (SUBJECT 2): 20.6 min
LAMBDA_Z (SUBJECT 2): 0.034 min⁻¹
MRT0-last (SUBJECT 2): 27.7 min
TMAX (SUBJECT 2): 20.8 min
TThresh (SUBJECT 2): 5.0 min
% AUC Extrap (SUBJECT 3): 23.2%
AUC0-LAST (SUBJECT 3): 19608 min · ppb
AUC0-∞ (SUBJECT 3): 25623 min · ppb
CMAX (SUBJECT 3): 1021 ppb
Half-life (SUBJECT 3): 30.7 min
LAMBDA_Z (SUBJECT 3): 0.024 min⁻¹
MRT0-last (SUBJECT 3): 22.7 min
TMAX (SUBJECT 3): 11.7 min
TThresh (SUBJECT 3): 5.8 min
% AUC Extrap (SUBJECT 4): 12.6%
AUC0-LAST (SUBJECT 4): 68147 min · ppb
AUC0-∞ (SUBJECT 4): 77593 min · ppb
CMAX (SUBJECT 4): 2238 ppb
Half-life (SUBJECT 4): 16.4 min
LAMBDA_Z (SUBJECT 4): 0.043 min⁻¹
MRT0-last (SUBJECT 4): 26.2 min
TMAX (SUBJECT 4): 18.3 min
TThresh (SUBJECT 4): 5.8 min
% AUC Extrap (SUBJECT 5): 12.0%
AUC0-LAST (SUBJECT 5): 9581 min · ppb
AUC0-∞ (SUBJECT 5): 10999 min · ppb
CMAX (SUBJECT 5): 398 ppb
Half-life (SUBJECT 5): 17.5 min
LAMBDA_Z (SUBJECT 5): 0.046 min⁻¹
MRT0-last (SUBJECT 5): 22.9 min
TMAX (SUBJECT 5): 16.7 min
TThresh (SUBJECT 5): 7.5 min
observed CMAX range (across subjects): 398-2,238 ppb
half life in breath (after oral 2-butanol (40 and 60 mg) to humans): 11 to 22 min
TThresh (mean of 30 observations (5 subjects, 6 replicates), oral 2-butanol 60 mg + 2-pentanone 60 mg): 6.2 min
